Experimental findings from US20260325605A1, “INHIBITORS” (Zealand Pharma A/S, priority 2022, published 2026) are described below.

pIC50: −log10 of the molar value. Read-outs that look alike come from different tables or passages of the source.

One data set has as its target T1, Kv1.3 (Homo sapiens, UniProt P22001).
T1 construct: expressed in transfected cells
Description: Patch clamp assay (QPatch), Kv1.3. Format: cell-based. The settings on record: CHO cells stably expressing human Kv1.3, read-out: Potency IC50, Kv1.3.

For a further data set, the target named is T2, Kv1.1 (Homo sapiens, UniProt Q09470).
T2 construct: expressed in transfected cells
Description: Patch clamp assay (QPatch), Kv1.1. Type of data set: cell-based. The settings on record: for pIC50: QPatch, CHO cells stably expressing human Kv1.1, read-out: Potency IC50, Kv1.1; for Selectivity Kv1.1/Kv1.3: ratio of IC50 Kv1.1/Kv1.3.

Another data set has as its target T3, Kv1.2 (Homo sapiens, UniProt P16389).
T3 construct: expressed in transfected cells
Description: Patch clamp assay (QPatch), Kv1.2. Type of data set: cell-based. The settings on record: for pIC50: QPatch, CHO cells stably expressing human Kv1.2, read-out: Potency IC50, Kv1.2; for Selectivity Kv1.2/Kv1.3: ratio of IC50 Kv1.2/Kv1.3.

For a further data set, the target named is T4, Kv1.6 (Homo sapiens, UniProt P17658).
T4 construct: expressed in transfected cells
The experiment in a line: Patch clamp assay (QPatch), Kv1.6. Type of data set: cell-based. The following applies: for pIC50: QPatch, CHO cells stably expressing human Kv1.6, read-out: Potency IC50, Kv1.6; for Selectivity Kv1.6/Kv1.3: ratio of IC50 Kv1.6/Kv1.3.

The subject of data set [1] is human peripheral blood mononuclear cells (PBMCs). The experiment in a line: Example 3b: IL-2 release from anti-CD3 stimulated human PBMCs. The settings on record: 5 donors, anti-CD3 1 μg/ml, geometric mean, at least 6 replicates. Format: cell-based.
Description: Human peripheral blood mononuclear cells (PBMCs) were used to assess the effects of Kv1.3 inhibitor peptides on T-cell activation as determined by IL-2 release after stimulation with anti-CD3.
Human PBMCs were obtained from Precision for Medicine (Frederick, MD). Cells from 5 donors were used. Plate-bound anti-CD3 was used to stimulate bulk T cells in the PBMC preparations. Briefly, 96-well plates were coated with anti-CD3 antibody for app. 16 hours at 5° C., using 50 μl of a 1 μg/ml anti-CD3 solution diluted in PBS. Thereafter the plates were washed twice.
Peptides were subsequently diluted in medium (RPMI 1640 with Glutamax-I containing, 10% v/v Fetal Bovine Serum, 1% v/v penicillin-streptomycin Solution) and added in a volume of 50 μl. The peptides indicated in Table 4b were used at concentrations ranging from 0.3 pM to 1000 nM (half log dilutions, starting concentrations varying). Cyclosporin A (1 μg/ml) and Vm24 peptide (100 nM) were used as positive controls.
Finally, 50,000 PBMCs in the same medium were added to each well in a volume of 50 μl, giving a final volume of 100 μl per well. The plates were incubated for 20-24 hours in a 370C/5% CO2 incubator. After centrifugation of the plates, 25 μl supernatant was transferred to IL-2 detection plates (MSD Human IL-2 Tissue Culture Kit, cat #K151AHB-2) and IL-2 was measures as described by the manufacturer (Meso Scale Discovery, Rockville, Maryland, USA).
All values derive from at least 6 replicates.
Data set [2] deals with T-cell activation in rat whole blood. The experiment in a line: Example 4: IL-17A release in thapsigargin stimulated rat whole blood. The settings on record: 24 Hr, at least 2 replicates, unit inferred, read-out: IC50 (inhibition of IL-17A release). Type of data set: cell-based, rat (Lewis or Sprague-Dawley). In outline: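 Heparinised whole blood from naïve Lewis or Sprague-Dawley rats preincubated ≥5 min at RT with peptide, then stimulated with thapsigargin (40 μM stock added as one quarter of well volume) for 24 h at 37 °C. Supernatant IL-17A measured by ELISA; IC50 from curves normalised to stimulated and unstimulated controls, ≥2 replicates.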

In data set [3] the test system is human peripheral blood mononuclear cells (PBMCs). Description: Example 3a: IL-2 release from anti-CD3 stimulated human PBMCs. Type of data set: cell-based.
Description: Human peripheral blood mononuclear cells (PBMCs) were used to assess the effects of Kv1.3 inhibitor peptides on T-cell activation as determined by IL-2 (cytokine) release after stimulation with anti-CD3.
Human PBMCs were obtained from Precision for Medicine (Frederick, MD). Cells from 5 donors were used. Plate-bound anti-CD3 was used to stimulate bulk T cells in the PBMC preparations. Briefly, 96-well plates were coated with anti-CD3 antibody for 2 hrs at 37° C., using 50 μL of a 0.5 μg/mL anti-CD3 solution diluted in 1×PBS. Thereafter the plates were washed twice.
Cyclosporin A (1 ug/ml) and Vm24 peptide (100 nM) were used as positive controls. Finally, 1×10^5 PBMCs were added to each well in a volume of 100 μL, giving a final volume of 200 μL per well. The plates were incubated for 20-24 hours in a 37° C./5% CO2 incubator. After centrifugation of the plates, 25 μl supernatant was transferred to IL-2 detection plates (MSD Human IL-2 Tissue Culture Kit, cat #K151AHB-2) and IL-2 was measures as described by the manufacturer (Meso Scale Discovery, Rockville, Maryland, USA).
All values derive from at least 4 replicates.
Data set [4] has as its system T-cell activation in human whole blood. The experiment in a line: Example 5: IFN-g, IL-2 and IL-17A release in thapsigargin stimulated human whole blood. Type of data set: cell-based. The following applies: 24 Hr, at least 2 replicate experiments. From the text: Human whole blood was used to assess the potency of Kv1.3 inhibitor peptides on T-cell activation as determined by release of the cytokines IFN-g, IL-2 and IL-17A after stimulation with thapsigargin. Addition of thapsigargin activates a signalling cascade resulting in T cell proliferation and cytokine production, in which the Kv1.3 ion channel plays a key role. Activity of Kv1.3 inhibitors in human primary T cells can thus be measured in this experimental system.
Human whole blood was obtained from healthy blood donors and was collected after informed consent using Sodium Heparin blood sampling tubes (Becton, Dickinson and Company (BD), Cat #367876). Test peptides were diluted to 4× final testing concentrations in assay buffer (Dulbecco's Modified Eagle's medium (DMEM) with high glucose and GlutaMAX (3.97 mM L-alanine-L-glutamine) (Gibco Cat #61965026) supplemented with 25 mM HEPES buffer, 1 mM Sodium Pyruvate, 100 units/ml Penicillin, 100 μg/ml Streptomycin and 0.05% Casein from bovine milk (Sigma-Aldrich Cat #C4765)) and 25 μl was added to wells of a 96 well tissue culture plate. Then 50 μl human whole blood was added and incubated for minimum 5 minutes at room temperature to allow compound binding. Then 25 μl of 40 μM thapsigargin diluted in assay buffer was added to all wells of the assay plates to activate the cells, followed by incubation for 24 Hr at 37° C./5% CO2 in a humidified box. The assay plates were centrifuged for 10 min at 300 g at 4° C. and the supernatants were transferred to new plates. The concentrations of IFN-g, IL-2 and IL-17A released to the supernatants were measured using a tri-plex human cytokine detection kit (MSD Human U-Plex IFN-g, IL-2 and IL-17A kit; Meso Scale Discovery Cat #K15067L-2) and all three cytokines were measured using a MSD MESO QuickPlex SQ 120 instrument as described by the manufacturer (Meso Scale Discovery, Rockville, Maryland, USA).
To determine the potency of inhibition for the compounds, the cytokine concentration data were fitted using a three parameter logistic dose response model based on the formula Y=Bottom+(Top−Bottom)/(1+IC50/X), where Y is measured cytokine concentrations, X is compound concentrations and Top, bottom and IC50 are parameters fitted using the software Graphpad Prism version 5.04. The IC50 value calculated from the concentration response curve represents the compound concentration that gives an inhibition response halfway between the basal (Bottom) response and the maximal (Top) response.
All values are derived from at least 2 replicate experiments. All of the tested Kv1.3 blockers were able to inhibit cytokine production from human T cells present in human whole blood that was stimulated with thapsigargin.

Data set [5] can be described thus: Example 6: Pharmacokinetic characterisation after s.c. administration. The settings on record: rat, 70 nmol/kg. Format: in vivo, rat (Sprague Dawley or Wistar). Here is the method:
Sprague Dawley or Wistar rats (males with a body weight of approximately 250-350 g) were given a single subcutaneous (s.c.) injection of each peptide to be tested.
Following s.c. administration of the selected peptides (dose 70 nmol/kg, dosing volume either 2 or 5 mL/kg), blood samples were drawn at 15 min, 30 min, 45 min, 60 min, 90 min, 2 h, 3 h, 4 h post-dose. At each sampling time point, samples from the rats were drawn by sublingual bleeding or by tail cut. After last sampling the rats were sacrificed by O2/CO2 anaesthesia. The dosing vehicle was 10 mM phosphate, 0.8% NaCl, 0.05% Polysorbate 20 (pH 6.0).
Plasma samples were analyzed after solid phase extraction (SPE) by liquid chromatography mass spectrometry (LC-MS/MS). Mean plasma concentrations were used for calculation of the pharmacokinetic parameters using the non-compartmental approach in Phoenix WinNonlin 6.4 or a later version. […]. AUCinf is the area under the plasma concentration−time curve extrapolated to infinity (AUCinf=AUClast+Clast/λz, where Clast is the last observed plasma concentration). Cmax is the maximum observed concentration, occurring at Tmax.

Setting [6] is: read-out: anti-CD3 PBMC/IL-2 IC50.

T3 sequence (P16389 whole entry): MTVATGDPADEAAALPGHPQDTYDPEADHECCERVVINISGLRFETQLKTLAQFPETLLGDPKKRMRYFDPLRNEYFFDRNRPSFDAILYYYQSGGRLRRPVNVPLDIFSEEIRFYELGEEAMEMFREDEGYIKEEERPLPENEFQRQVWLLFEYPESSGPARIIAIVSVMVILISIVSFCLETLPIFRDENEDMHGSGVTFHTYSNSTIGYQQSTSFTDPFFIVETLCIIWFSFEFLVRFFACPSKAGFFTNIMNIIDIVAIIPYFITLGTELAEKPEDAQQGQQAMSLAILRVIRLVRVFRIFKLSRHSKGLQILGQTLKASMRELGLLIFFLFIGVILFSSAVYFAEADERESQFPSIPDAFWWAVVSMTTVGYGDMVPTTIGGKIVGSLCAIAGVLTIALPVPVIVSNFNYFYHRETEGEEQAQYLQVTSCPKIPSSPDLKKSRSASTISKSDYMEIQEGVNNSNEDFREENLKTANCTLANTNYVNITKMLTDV
T2 sequence (Q09470 whole entry): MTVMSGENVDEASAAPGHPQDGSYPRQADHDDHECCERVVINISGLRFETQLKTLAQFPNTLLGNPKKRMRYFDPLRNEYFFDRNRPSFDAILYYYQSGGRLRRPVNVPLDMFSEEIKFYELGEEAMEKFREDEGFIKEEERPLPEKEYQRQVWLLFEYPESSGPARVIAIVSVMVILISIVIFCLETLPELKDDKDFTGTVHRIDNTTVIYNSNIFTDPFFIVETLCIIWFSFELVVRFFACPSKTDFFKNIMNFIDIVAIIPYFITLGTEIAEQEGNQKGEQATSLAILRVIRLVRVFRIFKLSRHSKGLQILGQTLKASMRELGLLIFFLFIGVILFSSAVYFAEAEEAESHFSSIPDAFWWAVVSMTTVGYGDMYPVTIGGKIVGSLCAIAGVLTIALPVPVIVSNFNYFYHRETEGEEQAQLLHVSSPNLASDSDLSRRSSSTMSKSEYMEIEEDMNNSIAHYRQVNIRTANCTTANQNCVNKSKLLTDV
T4 sequence (P17658 whole entry): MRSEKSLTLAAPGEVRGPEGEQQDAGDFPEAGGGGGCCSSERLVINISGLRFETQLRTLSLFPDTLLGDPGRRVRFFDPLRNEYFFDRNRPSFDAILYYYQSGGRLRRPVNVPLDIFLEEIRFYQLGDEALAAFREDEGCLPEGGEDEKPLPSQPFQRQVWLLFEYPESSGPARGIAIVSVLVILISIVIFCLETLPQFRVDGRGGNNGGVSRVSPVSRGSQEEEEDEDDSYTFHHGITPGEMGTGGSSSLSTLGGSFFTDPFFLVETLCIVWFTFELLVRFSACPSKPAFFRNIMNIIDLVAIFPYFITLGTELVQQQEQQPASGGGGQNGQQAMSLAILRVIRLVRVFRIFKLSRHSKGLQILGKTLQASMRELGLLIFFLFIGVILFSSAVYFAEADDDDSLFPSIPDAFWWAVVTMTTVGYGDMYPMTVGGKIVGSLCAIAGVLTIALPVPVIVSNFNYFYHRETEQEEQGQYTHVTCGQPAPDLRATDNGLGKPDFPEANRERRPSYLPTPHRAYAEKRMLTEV
T1 sequence (P22001 whole entry): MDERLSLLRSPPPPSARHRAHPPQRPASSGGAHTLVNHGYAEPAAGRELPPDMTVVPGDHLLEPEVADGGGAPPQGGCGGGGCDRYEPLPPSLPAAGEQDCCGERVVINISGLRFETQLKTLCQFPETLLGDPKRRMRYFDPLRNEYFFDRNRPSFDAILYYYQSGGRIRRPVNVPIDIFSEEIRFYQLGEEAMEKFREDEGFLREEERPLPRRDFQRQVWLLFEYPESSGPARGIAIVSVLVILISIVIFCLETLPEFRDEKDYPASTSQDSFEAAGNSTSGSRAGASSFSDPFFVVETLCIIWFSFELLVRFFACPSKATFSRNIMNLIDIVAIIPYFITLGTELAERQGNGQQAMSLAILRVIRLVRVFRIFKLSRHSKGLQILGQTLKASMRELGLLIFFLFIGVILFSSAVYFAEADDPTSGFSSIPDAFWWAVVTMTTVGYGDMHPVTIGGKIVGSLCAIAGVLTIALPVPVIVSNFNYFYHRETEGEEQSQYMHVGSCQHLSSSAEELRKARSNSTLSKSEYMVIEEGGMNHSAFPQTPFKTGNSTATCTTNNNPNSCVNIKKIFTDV
Description for Kv1.2: (§1) Selectivity of Kv1.3 inhibitor peptides for Kv1.3 over other potassium ion channels (Kv1.1, Kv1.2 and Kv1.6) was determined using patch clamp assay.
(§2) Chinese Hamster Ovary (CHO) cell lines stably expressing exogenous human α-subunits of each potassium ion channel were grown and passaged under standard culture conditions.
(§3) The automated, chip-based planar patch clamp device QPatch® was used to quantitate the ionic currents. All recordings were made in the conventional whole-cell configuration after establishment of gigaohm seals. […] During experiments 0.1% (v/v) BSA was included as a vehicle in all external recording solutions. Currents were elicited from a holding potential of −80 mV using a voltage protocol, which shifted the voltage to 30 mV for 500 ms every 15 s.
(§4) Concentration-response relationships were established by cumulatively applying seven escalating concentrations of test sample to an individual cell with a recording period of 2 min per compound application.
(§5) The efficacy was determined as the mean charge for the last three sweeps at the end of each concentration application period from the cursor positions. The percent inhibition for each test dose application period was calculated as the reduction in mean cursor value (charge) relative to the cursor value measured at the end of the vehicle period and used to calculate the IC50 from the concentration response curve.
Description for Kv1.6: as §1, §2, §3, §4, §5

As for “H-QMDMRC(1)SASVEC(2)KQKC(3)LKAIGSIFGKC(1)MNKKC(2)KC(3)YPR-OH [Peptide 1]”, the pIC50 at Kv1.3 was 9.42; at Kv1.1, under 5.52; on Kv1.2, 6.29; at Kv1.6, under 5.52; in data set [1] (setting [6]), 10.05; in data set [2], 9.77. The “Selectivity Kv1.1/Kv1.3” value at Kv1.1 was over 7900. Also, on Kv1.2, the “Selectivity Kv1.2/Kv1.3” value was 1364. For the same substance, the “Selectivity Kv1.6/Kv1.3” value at Kv1.6 is on record as over 7900.
For the substance “H-N[Nle]D[Nle]RC(1)SASVEC(2)KQSC(3)LKAIGSIFGKC(1)[Nle]NKKC(2)KC(3)YPR-NH2 [Peptide 49]”, the pIC50 is 9.43 at Kv1.3; under 5.52 on Kv1.1; under 5.52 on Kv1.2; under 5.52 on Kv1.6; 10.15 in [1] (setting [6]); 9.20 in [2]. The “Selectivity Kv1.1/Kv1.3” value on Kv1.1 was over 8200. Also, the “Selectivity Kv1.2/Kv1.3” value at Kv1.2 was over 8200. In addition, at Kv1.6, the “Selectivity Kv1.6/Kv1.3” value is over 8200.
Consider “H-NMDMRC(1)SASVEC(2)KQKC(3)LKAIGSIFGKC(1)MNKKC(2)KC(3)YPRRRTA-NH2 [Peptide 24]”, for which the pIC50 was 9.82 at Kv1.3; 6.20 on Kv1.1; 7.55 at Kv1.2; 6.67 on Kv1.6; 10.22 in [1] (setting [6]); 9.24 in [2]. Moreover, the “Selectivity Kv1.1/Kv1.3” value at Kv1.1 was found to be 4280. The “Selectivity Kv1.2/Kv1.3” value at Kv1.2 came to 191. In addition, the “Selectivity Kv1.6/Kv1.3” value on Kv1.6 is 1472.
On to “H-[phosphotyrosyl][8-Amino-3,6-dioxaoctanoyl]RSCIDTIPKSRCTAFQCKHSMKYRLSFCRKTCGTC-NH2 [ShK-186, reference compound]”, for which the pIC50 on Kv1.3 was 10.02; at Kv1.1, 9.51; on Kv1.2, 7.37; at Kv1.6, 9.35; in [3] (human PBMCs, 5 donors, anti-CD3 0.5 μg/mL, geometric mean, at least 4 replicates, read-out: anti-CD3 PBMC/ IL-2 IC50) it was 10.15; in data set [1] (listed as ShK186, read-out: anti-CD3 PBMC/IL-2 IC50), 10.30. Besides, in data set [1] (setting [6]), the pIC50 was 10.40. Moreover, on Kv1.1, the “Selectivity Kv1.1/Kv1.3” value is listed as 4.9. Also, the “Selectivity Kv1.2/Kv1.3” value on Kv1.2 is 682. In addition, the “Selectivity Kv1.6/Kv1.3” value on Kv1.6 amounted to 7.4. Also, in [3] (in words), the “comparison of IC50 (IL-2 secretion) with ShK186 / Moka1” value was “significantly lower than Moka1”.
On to “H-P[Nle]D[Nle]RC(1)SASVEC(2)KQKC(3)LKAIGSIFGKC(1)[Nle]NKKC(2)KC(3)YPR-NH2 [Peptide 42]”, for which the pIC50 at Kv1.3 was 9.74; at Kv1.1 it was under 5.52; on Kv1.2, 6.03; at Kv1.6, under 5.52; in [1] (setting [6]), 10.52; in data set [2], 9.01. Besides, the pIC50 in [4] (read-out: Average IC50, IFN-g) is 10.34; in data set [4] (read-out: Average IC50, IL-2), 10.52; in data set [4] (read-out: Average IC50, IL-17A) it was 10.24. In addition, the “Selectivity Kv1.1/Kv1.3” value at Kv1.1 is recorded as over 17100. Besides, the “Selectivity Kv1.2/Kv1.3” value on Kv1.2 was 5362. The “Selectivity Kv1.6/Kv1.3” value at Kv1.6 is given as over 17100.
Take “H-NMDMRC(1)SASVEC(2)KQKC(3)LKAIGSIFGKC(1)MNKKC(2)KC(3)YPR-OH [Peptide 3]”: the pIC50 on Kv1.3 is 9.57; on Kv1.1, under 5.52; on Kv1.2 it was 6.39; at Kv1.6, under 5.52; in data set [1] (setting [6]), 10.22; in [2], 9.00. Moreover, the pIC50 is 10.24 in data set [4] (read-out: Average IC50, IFN-g); 10.66 in [4] (read-out: Average IC50, IL-2); 10.36 in data set [4] (read-out: Average IC50, IL-17A). Moreover, on Kv1.1, the “Selectivity Kv1.1/Kv1.3” value is listed as over 11300. Moreover, on Kv1.2, the “Selectivity Kv1.2/Kv1.3” value is 1540. The “Selectivity Kv1.6/Kv1.3” value at Kv1.6 is listed as over 11300. This substance also yielded an AUCINF in data set [5] (plasma) of 83.9 nM·h. The substance also had a Cmax in data set [5] (plasma) of 0.0369 µM. The same substance had a T1/2 in [5] (plasma terminal elimination half-life) of 59.4 min.
